From patent US20240158446A1, “CYCLIC COMPOUND HAVING SELECTIVE INHIBITORY ACTION ON KRAS OVER HRAS AND NRAS” (CHUGAI SEIYAKU KABUSHIKI KAISHA, priority 2021, published 2024)
pKd: −log10 of the molar value.

What was measured:
[1] = target: GDP-bound HRAS wild-type protein (Homo sapiens, UniProt P01112); assay: Binding to HRAS by surface plasmon resonance (SPR), Single Cycle Kinetics; settings: SPR, GDP-bound HRAS wild-type protein vs GDP-bound KRAS wild-type protein
[2] = target: GDP-bound KRAS wild-type protein (Homo sapiens, UniProt P01116); assay: Binding to KRAS by surface plasmon resonance (SPR), Single Cycle Kinetics; settings: SPR, Single Cycle Kinetics, GDP-bound KRAS wild-type protein; read-out: KRAS KD
[3] = target: GDP-bound NRAS wild-type protein (Homo sapiens, UniProt P01111); assay: Binding to NRAS by surface plasmon resonance (SPR), Single Cycle Kinetics; settings: SPR, GDP-bound NRAS wild-type protein vs GDP-bound KRAS wild-type protein
GDP-bound NRAS wild-type protein, sequence (P01111 whole entry): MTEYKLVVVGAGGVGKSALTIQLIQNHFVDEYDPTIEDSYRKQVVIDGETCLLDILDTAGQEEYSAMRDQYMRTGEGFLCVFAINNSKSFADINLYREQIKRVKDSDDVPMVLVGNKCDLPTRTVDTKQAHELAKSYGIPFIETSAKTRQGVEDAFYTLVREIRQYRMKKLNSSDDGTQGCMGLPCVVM

GDP-bound HRAS wild-type protein, sequence (P01112 whole entry): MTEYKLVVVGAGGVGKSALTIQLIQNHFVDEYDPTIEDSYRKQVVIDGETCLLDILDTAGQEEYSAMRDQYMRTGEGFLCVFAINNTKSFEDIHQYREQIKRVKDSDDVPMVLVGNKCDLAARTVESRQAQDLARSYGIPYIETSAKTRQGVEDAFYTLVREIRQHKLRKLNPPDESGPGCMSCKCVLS
GDP-bound KRAS wild-type protein, sequence (P01116 whole entry): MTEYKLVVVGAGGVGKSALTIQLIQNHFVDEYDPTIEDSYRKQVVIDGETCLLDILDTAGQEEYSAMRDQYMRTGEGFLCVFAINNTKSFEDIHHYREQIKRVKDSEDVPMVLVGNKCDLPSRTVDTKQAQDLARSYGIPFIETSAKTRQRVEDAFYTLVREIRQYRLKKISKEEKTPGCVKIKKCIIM

Compound | HRAS/KRAS (ratio of KD value for HRAS to KD value for KRAS) [1] | pKd [2] | NRAS/KRAS (ratio of KD value for NRAS to KD value for KRAS) [3]
CCC[C@H]1C(=O)N[C@@H]([C@@H](C)CC)C(=O)N(C)CC(=O)N(C)[C@H]2C/C=C\CCN(C2=O)[C@@H](Cc2ccc(C(F)(F)F)cc2)C(=O)N(C)CC(=O)N[C@@H](CCc2ccc(C(F)(F)F)c(OC)c2)C(=O)N2C[C@H](OCC)C[C@H]2C(=O)N(C)C2(CCC2)C(=O)N(C)[C@@H](C2CCCC2)C(=O)N(C)[C@H](C(=O)N(C)C)CC(=O)N1C [PP2312] | B (a compound having 3 or more and less than 10 is denoted as B) | 10.52 | A (a compound having 10 or more and less than 20 is denoted as A)
CCC[C@H]1C(=O)N[C@@H]([C@@H](C)CC)C(=O)N(C2CC2)CC(=O)N(C)[C@H]2C/C=C\CCN(C2=O)[C@@H](Cc2ccc(C(F)(F)F)cc2)C(=O)N(C)CC(=O)N[C@@H](CCc2ccc(C(F)(F)F)c(OC)c2)C(=O)N2C[C@H](OCC)C[C@H]2C(=O)N(C)C2(CCC2)C(=O)N(C)[C@@H](C(CC)CC)C(=O)N(C)[C@H](C(=O)N(C)C)CC(=O)N1C [PP2313] | A (a compound having 10 or more and less than 20 is denoted as A) | 9.31 | AA (a compound having 20 or more is denoted as AA)
CCC[C@H]1C(=O)N[C@@H]([C@@H](C)CC)C(=O)N(C2CC2)CC(=O)N(C)[C@H]2C/C=C\CCN(C2=O)[C@@H](Cc2ccc(C(F)(F)F)cc2)C(=O)N(C)CC(=O)N[C@@H](CCc2ccc(C(F)(F)F)c(OC)c2)C(=O)N2C[C@H](OCC)C[C@H]2C(=O)N(C)C2(CCC2)C(=O)N(C)[C@@H](C2CCCC2)C(=O)N(C)[C@H](C(=O)N(C)C)CC(=O)N1C [PP2316, (2S,8S,12R,14S,20S,23S,27S,30S,36S,38Z)-20-cyclopentyl-32-cyclopropyl-12-ethoxy-8-[2-[3-methoxy-4-(trifluoromethyl)phenyl]ethyl]-N,N,4,16,19,22,26,35-octamethyl-30-[(1S)-1-methylpropyl]-3,6,9,15,18,21,25,28,31,34,42-undecaoxo-27-propyl-2-[[4-(trifluoromethyl)phenyl]methyl]spiro[1,4,7,10,16,19,22,26,29,32,35-undecazatricyclo[34.5.1.0^10,14]dotetracont-38-ene-17,1′-cyclobutane]-23-carboxamide] | A (a compound having 10 or more and less than 20 is denoted as A) | 9.92 | A (a compound having 10 or more and less than 20 is denoted as A)
CCC[C@H]1C(=O)N[C@@H]([C@@H](C)CC)C(=O)N2CCC[C@H]2C(=O)N(C)[C@H]2C/C=C\CCN(C2=O)[C@@H](Cc2ccc(C(F)(F)F)cc2)C(=O)N(C)CC(=O)N[C@@H](CCc2ccc(C(F)(F)F)c(OC)c2)C(=O)N2C[C@H](OCC)C[C@H]2C(=O)N(C)C2(CCC2)C(=O)N(C)[C@@H](C(CC)CC)C(=O)N(C)[C@H](C(=O)N(C)C)CC(=O)N1C [PP2317] | A (a compound having 10 or more and less than 20 is denoted as A) | 9.40 | A (a compound having 10 or more and less than 20 is denoted as A)
CCOC[C@H]1C(=O)N[C@@H]([C@@H](C)CC)C(=O)N2CCC[C@H]2C(=O)N(C)[C@H]2C/C=C\CCN(C2=O)[C@@H](Cc2ccc(C(F)(F)F)cc2)C(=O)N(C)CC(=O)N[C@@H](CCc2ccc(C(F)(F)F)c(OC)c2)C(=O)N2C[C@H](OCC)C[C@H]2C(=O)N(C)C2(CCC2)C(=O)N(C)[C@@H](C(CC)CC)C(=O)N(C)[C@H](C(=O)N(C)C)CC(=O)N1C [PP2319] | A (a compound having 10 or more and less than 20 is denoted as A) | 9.46 | AA (a compound having 20 or more is denoted as AA)
CCC[C@H]1C(=O)N[C@@H]([C@@H](C)CC)C(=O)N2CCC[C@H]2C(=O)N(C)[C@H]2C/C=C\CCN(C2=O)[C@@H](Cc2ccc(C(F)(F)F)cc2)C(=O)N(C)CC(=O)N[C@@H](CCc2ccc(C(F)(F)F)c(OC)c2)C(=O)N2C[C@H](OCC)C[C@H]2C(=O)N(C)C2(CCC2)C(=O)N(C)[C@@H](C2CCCC2)C(=O)N(C)[C@H](C(=O)N(C)C)CC(=O)N1C [PP2320, (1S,4S,10S,13S,17S,20S,26S,28R,32S,38S,42Z)-20-cyclopentyl-28-ethoxy-32-[2-[3-methoxy-4-(trifluoromethyl)phenyl]ethyl]-N,N,2,14,18,21,24,36-octamethyl-10-[(1S)-1-methylpropyl]-3,9,12,15,19,22,25,31,34,37,45-undecaoxo-13-propyl-38-[[4-(trifluoromethyl)phenyl]methyl]spiro[2,8,11,14,18,21,24,30,33,36,39-undecazatetracyclo[37.5.1.0^4,8.0^26,30]pentatetracont-42-ene-23,1′-cyclobutane]-17-carboxamide] | A (a compound having 10 or more and less than 20 is denoted as A) | 9.96 | A (a compound having 10 or more and less than 20 is denoted as A)
CCCOC[C@H]1C(=O)N[C@@H]([C@@H](C)CC)C(=O)N2CCC[C@H]2C(=O)N(C)[C@H]2C/C=C\CCN(C2=O)[C@@H](Cc2ccc(C(F)(F)F)cc2)C(=O)N(C)CC(=O)N[C@@H](CCc2ccc(C(F)(F)F)c(OC)c2)C(=O)N2C[C@H](OCC)C[C@H]2C(=O)N(C)C2(CCC2)C(=O)N(C)[C@@H](C2CCCC2)C(=O)N(C)[C@H](C(=O)N(C)C)CC(=O)N1C [PP2322] | B (a compound having 3 or more and less than 10 is denoted as B) | 9.74 | A (a compound having 10 or more and less than 20 is denoted as A)
CCCOC[C@H]1C(=O)N[C@@H]([C@@H](C)CC)C(=O)N(C2CC2)CC(=O)N(C)[C@H]2C/C=C\CCN(C2=O)[C@@H](Cc2ccc(C)cc2)C(=O)N(C)CC(=O)N[C@@H](CCc2ccc(C(F)(F)F)c(OC)c2)C(=O)N2C[C@H](OCC)C[C@H]2C(=O)N(C)C2(CCC2)C(=O)N(C)[C@@H](C(CC)CC)C(=O)N(C)[C@H](C(=O)N(C)C)CC(=O)N1C [PP2327] | A (a compound having 10 or more and less than 20 is denoted as A) | 9.30 | A (a compound having 10 or more and less than 20 is denoted as A)
CCC[C@H]1C(=O)N[C@@H]([C@@H](C)CC)C(=O)N(C2CC2)CC(=O)N(C)[C@H]2C/C=C\CCN(C2=O)[C@@H](Cc2ccc(C)cc2)C(=O)N(C)CC(=O)N[C@@H](CCc2ccc(C(F)(F)F)c(OC)c2)C(=O)N2C[C@H](OCC)C[C@H]2C(=O)N(C)C2(CCC2)C(=O)N(C)[C@@H](C2CCCC2)C(=O)N(C)[C@H](C(=O)N(C)C)CC(=O)N1C [PP2328, (2S,8S,12R,14S,20S,23S,27S,30S,36S,38Z)-20-cyclopentyl-32-cyclopropyl-12-ethoxy-8-[2-[3-methoxy-4-(trifluoromethyl)phenyl]ethyl]-N,N,4,16,19,22,26,35-octamethyl-30-[(1S)-1-methylpropyl]-3,6,9,15,18,21,25,28,31,34,42-undecaoxo-27-propyl-2-(p-tolylmethyl)spiro[1,4,7,10,16,19,22,26,29,32,35-undecazatricyclo[34.5.1.0^10,14]dotetracont-38-ene-17,1′-cyclobutane]-23-carboxamide] | A (a compound having 10 or more and less than 20 is denoted as A) | 10.10 | A (a compound having 10 or more and less than 20 is denoted as A)
CCC[C@H]1C(=O)N[C@@H]([C@@H](C)CC)C(=O)N2CCC[C@H]2C(=O)N(C)[C@H]2C/C=C\CCN(C2=O)[C@@H](Cc2ccc(C)cc2)C(=O)N(C)CC(=O)N[C@@H](CCc2ccc(C(F)(F)F)c(OC)c2)C(=O)N2C[C@H](OCC)C[C@H]2C(=O)N(C)C2(CCC2)C(=O)N(C)[C@@H](C(CC)CC)C(=O)N(C)[C@H](C(=O)N(C)C)CC(=O)N1C [PP2329] | A (a compound having 10 or more and less than 20 is denoted as A) | 9.38 | A (a compound having 10 or more and less than 20 is denoted as A)
CCCOC[C@H]1C(=O)N[C@@H]([C@@H](C)CC)C(=O)N(C2CC2)CC(=O)N(C)[C@H]2C/C=C\CCN(C2=O)[C@@H](Cc2ccc(C)cc2)C(=O)N(C)CC(=O)N[C@@H](CCc2ccc(C(F)(F)F)c(OC)c2)C(=O)N2C[C@H](OCC)C[C@H]2C(=O)N(C)C2(CCC2)C(=O)N(C)[C@@H](C2CCCC2)C(=O)N(C)[C@H](C(=O)N(C)C)CC(=O)N1C [PP2330] | A (a compound having 10 or more and less than 20 is denoted as A) | 9.96 | A (a compound having 10 or more and less than 20 is denoted as A)
CCCOC[C@H]1C(=O)N[C@@H]([C@@H](C)CC)C(=O)N2CCC[C@H]2C(=O)N(C)[C@H]2C/C=C\CCN(C2=O)[C@@H](Cc2ccc(C)cc2)C(=O)N(C)CC(=O)N[C@@H](CCc2ccc(C(F)(F)F)c(OC)c2)C(=O)N2C[C@H](OCC)C[C@H]2C(=O)N(C)C2(CCC2)C(=O)N(C)[C@@H](C(CC)CC)C(=O)N(C)[C@H](C(=O)N(C)C)CC(=O)N1C [PP2331] | A (a compound having 10 or more and less than 20 is denoted as A) | 9.44 | AA (a compound having 20 or more is denoted as AA)
CCC[C@H]1C(=O)N[C@@H]([C@@H](C)CC)C(=O)N2CCC[C@H]2C(=O)N(C)[C@H]2C/C=C\CCN(C2=O)[C@@H](Cc2ccc(C)cc2)C(=O)N(C)CC(=O)N[C@@H](CCc2ccc(C(F)(F)F)c(OC)c2)C(=O)N2C[C@H](OCC)C[C@H]2C(=O)N(C)C2(CCC2)C(=O)N(C)[C@@H](C2CCCC2)C(=O)N(C)[C@H](C(=O)N(C)C)CC(=O)N1C [PP2332] | B (a compound having 3 or more and less than 10 is denoted as B) | 10.00 | A (a compound having 10 or more and less than 20 is denoted as A)
